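Following 48 hours of exposure in 96-well plates, responses at five concentrations were used to interpolate endpoints linearly. At the GI50, growth is halved.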 Active and inactive are the calls of the source. No stated cut-off is given here; in the data, active = GI50 up to about 1.1 µM and inactive = higher.
How the values were obtained:
Experiment in all cases: inhibition of tumour cell growth, NCI panel, 48 h
OVCAR-8 = test system: OVCAR-8
MDA-MB-231 = test system: MDA-MB-231
T47D = test system: T47D
SF-295 = test system: SF-295
NCI-H522 = test system: NCI-H522
SK-MEL-2 = test system: SK-MEL-2
SF-539 = test system: SF-539
DU-145 = test system: DU-145
MOLT-4 = test system: MOLT-4
OVCAR-4 = test system: OVCAR-4
TK-10 = test system: TK-10
NCI-H460 = test system: NCI-H460
RPMI-8226 = test system: RPMI-8226
CAKI-1 = test system: CAKI-1
MCF7 = test system: MCF7
SNB-75 = test system: SNB-75
NCI-H226 = test system: NCI-H226
OVCAR-3 = test system: OVCAR-3
MDA-MB-435 = test system: MDA-MB-435
SK-OV-3 = test system: SK-OV-3
CCRF-CEM = test system: CCRF-CEM
786-0 = test system: 786-0
HCT-116 = test system: HCT-116
SNB-19 = test system: SNB-19
ACHN = test system: ACHN
UO-31 = test system: UO-31
UACC-257 = test system: UACC-257
U-251 = test system: U-251
IGROV-1 = test system: IGROV-1
SR = test system: SR
BT-549 = test system: BT-549
HOP-62 = test system: HOP-62
HOP-92 = test system: HOP-92
UACC-62 = test system: UACC-62
HCT-15 = test system: HCT-15
A549 = test system: A549
HCC 2998 = test system: HCC 2998
NCI-H23 = test system: NCI-H23
OVCAR-5 = test system: OVCAR-5
MDA-N = test system: MDA-N
KM12 = test system: KM12
Malme-3M = test system: Malme-3M
Hs-578T = test system: Hs-578T
LOX IMVI = test system: LOX IMVI
K562 = test system: K562
EKVX = test system: EKVX
PC-3 = test system: PC-3
NCI/ADR-RES = test system: NCI/ADR-RES
SW-620 = test system: SW-620
M14 = test system: M14
SK-MEL-5 = test system: SK-MEL-5
A498 = test system: A498
SF-268 = test system: SF-268
HT-29 = test system: HT-29
SN12C = test system: SN12C
COLO 205 = test system: COLO 205
HL-60 = test system: HL-60
SK-MEL-28 = test system: SK-MEL-28

Q: With CC(=O)N1C(C(=O)NNc2ccccc2)CSC1c1ccccc1 (stereo not given) as the compound, how does the GI50 (OVCAR-8) read?
A: > 100 µM (inactive)

Q: What about the GI50 (MDA-MB-231) of the same compound?
A: > 100 µM (inactive)

Q: And the GI50 (T47D)?
A: 69.7 µM (inactive)

Q: And the GI50 (SF-295)?
A: > 100 µM (inactive)

Q: And the GI50 (NCI-H522)?
A: 0.471 µM (active)

Q: And the GI50 (SK-MEL-2)?
A: > 100 µM (inactive)

Q: And the GI50 (SF-539)?
A: 62.8 µM (inactive)

Q: And the GI50 (DU-145)?
A: > 100 µM (inactive)

Q: What about the GI50 (MOLT-4) of the same compound?
A: 4 µM (inactive)

Q: What about the GI50 (OVCAR-4) of the same compound?
A: > 100 µM (inactive)

Q: And the GI50 (TK-10)?
A: > 100 µM (inactive)

Q: And the GI50 (NCI-H460)?
A: > 100 µM (inactive)

Q: What about the GI50 (RPMI-8226) of the same compound?
A: 37.8 µM (inactive)

Q: What about the GI50 (CAKI-1) of the same compound?
A: > 100 µM (inactive)

Q: And the GI50 (MCF7)?
A: > 100 µM (inactive)

Q: What about the GI50 (SNB-75) of the same compound?
A: > 100 µM (inactive)

Q: And the GI50 (NCI-H226)?
A: > 100 µM (inactive)

Q: What about the GI50 (OVCAR-3) of the same compound?
A: 58.2 µM (inactive)

Q: What about the GI50 (MDA-MB-435) of the same compound?
A: 16.7 µM (inactive)

Q: What about the GI50 (SK-OV-3) of the same compound?
A: > 100 µM (inactive)

Q: What about the GI50 (CCRF-CEM) of the same compound?
A: 77.3 µM (inactive)

Q: What about the GI50 (786-0) of the same compound?
A: > 100 µM (inactive)

Q: What about the GI50 (HCT-116) of the same compound?
A: > 100 µM (inactive)

Q: What about the GI50 (SNB-19) of the same compound?
A: > 100 µM (inactive)

Q: What about the GI50 (ACHN) of the same compound?
A: 4.47 µM (inactive)

Q: What about the GI50 (UO-31) of the same compound?
A: 70.8 µM (inactive)

Q: And the GI50 (UACC-257)?
A: > 100 µM (inactive)

Q: What about the GI50 (U-251) of the same compound?
A: > 100 µM (inactive)

Q: What about the GI50 (IGROV-1) of the same compound?
A: 36.6 µM (inactive)

Q: What about the GI50 (SR) of the same compound?
A: > 100 µM (inactive)

Q: What about the GI50 (BT-549) of the same compound?
A: > 100 µM (inactive)

Q: What about the GI50 (HOP-62) of the same compound?
A: > 100 µM (inactive)

Q: And the GI50 (HOP-92)?
A: > 100 µM (inactive)

Q: What about the GI50 (UACC-62) of the same compound?
A: 1.39 µM (inactive)

Q: What about the GI50 (HCT-15) of the same compound?
A: 1.56 µM

Q: And the GI50 (A549)?
A: 71 µM (inactive)

Q: What about the GI50 (HCC 2998) of the same compound?
A: 23 µM (inactive)

Q: And the GI50 (NCI-H23)?
A: > 100 µM (inactive)

Q: What about the GI50 (OVCAR-5) of the same compound?
A: > 100 µM (inactive)

Q: What about the GI50 (MDA-N) of the same compound?
A: > 100 µM (inactive)

Q: What about the GI50 (KM12) of the same compound?
A: 71.3 µM (inactive)

Q: And the GI50 (Malme-3M)?
A: > 100 µM (inactive)

Q: And the GI50 (Hs-578T)?
A: > 100 µM (inactive)

Q: What about the GI50 (LOX IMVI) of the same compound?
A: 3.16 µM (inactive)

Q: What about the GI50 (K562) of the same compound?
A: 3.42 µM (inactive)

Q: What about the GI50 (EKVX) of the same compound?
A: > 100 µM (inactive)

Q: And the GI50 (PC-3)?
A: 5.3 µM (inactive)

Q: What about the GI50 (NCI/ADR-RES) of the same compound?
A: > 100 µM (inactive)

Q: What about the GI50 (SW-620) of the same compound?
A: > 100 µM (inactive)

Q: What about the GI50 (M14) of the same compound?
A: 16.7 µM (inactive)

Q: And the GI50 (SK-MEL-5)?
A: > 100 µM (inactive)

Q: What about the GI50 (A498) of the same compound?
A: > 100 µM (inactive)

Q: What about the GI50 (SF-268) of the same compound?
A: > 100 µM (inactive)

Q: What about the GI50 (HT-29) of the same compound?
A: > 100 µM (inactive)

Q: What about the GI50 (SN12C) of the same compound?
A: > 100 µM (inactive)

Q: And the GI50 (COLO 205)?
A: 64.9 µM (inactive)

Q: O=C(c1ccccc1)c1ccc(N2C(=O)/C(=C/c3ccccc3S)N=C2c2ccccc2)c(N2C(=O)/C(=C/c3ccccc3S)N=C2c2ccccc2)c1 was tested. Which GI50 (OVCAR-8) did it give?
A: 27.8 µM (inactive)

Q: What about the GI50 (MDA-MB-231) of the same compound?
A: > 100 µM (inactive)

Q: And the GI50 (T47D)?
A: 43.3 µM (inactive)

Q: What about the GI50 (SF-295) of the same compound?
A: 46.6 µM (inactive)

Q: What about the GI50 (SK-MEL-2) of the same compound?
A: 22.7 µM (inactive)

Q: And the GI50 (SF-539)?
A: 21.3 µM (inactive)

Q: And the GI50 (DU-145)?
A: 59 µM (inactive)

Q: And the GI50 (MOLT-4)?
A: 21.4 µM (inactive)

Q: And the GI50 (OVCAR-4)?
A: 38.3 µM (inactive)

Q: And the GI50 (TK-10)?
A: > 100 µM (inactive)

Q: What about the GI50 (NCI-H460) of the same compound?
A: 47.6 µM (inactive)

Q: And the GI50 (RPMI-8226)?
A: 21.9 µM (inactive)

Q: What about the GI50 (CAKI-1) of the same compound?
A: > 100 µM (inactive)

Q: And the GI50 (MCF7)?
A: 45.6 µM (inactive)

Q: What about the GI50 (SNB-75) of the same compound?
A: 21.2 µM (inactive)

Q: What about the GI50 (OVCAR-3) of the same compound?
A: 20.1 µM (inactive)

Q: And the GI50 (HL-60)?
A: 11.8 µM (inactive)

Q: What about the GI50 (MDA-MB-435) of the same compound?
A: 19.6 µM (inactive)

Q: What about the GI50 (SK-OV-3) of the same compound?
A: > 100 µM (inactive)

Q: And the GI50 (CCRF-CEM)?
A: 22.2 µM (inactive)

Q: And the GI50 (786-0)?
A: > 100 µM (inactive)

Q: What about the GI50 (HCT-116) of the same compound?
A: 66.4 µM (inactive)

Q: What about the GI50 (SNB-19) of the same compound?
A: 41.5 µM (inactive)

Q: What about the GI50 (ACHN) of the same compound?
A: 60.4 µM (inactive)

Q: What about the GI50 (UO-31) of the same compound?
A: 84.5 µM (inactive)

Q: What about the GI50 (UACC-257) of the same compound?
A: > 100 µM (inactive)

Q: And the GI50 (U-251)?
A: 25.2 µM (inactive)

Q: What about the GI50 (IGROV-1) of the same compound?
A: 46.9 µM (inactive)

Q: And the GI50 (SR)?
A: 30.5 µM (inactive)

Q: And the GI50 (BT-549)?
A: 49.3 µM (inactive)

Q: And the GI50 (HOP-62)?
A: 40.7 µM (inactive)

Q: What about the GI50 (SK-MEL-28) of the same compound?
A: > 100 µM (inactive)

Q: What about the GI50 (HOP-92) of the same compound?
A: > 100 µM (inactive)

Q: And the GI50 (UACC-62)?
A: 49.4 µM (inactive)

Q: And the GI50 (HCT-15)?
A: 53.3 µM

Q: And the GI50 (A549)?
A: 33.2 µM (inactive)

Q: And the GI50 (HCC 2998)?
A: 35.7 µM (inactive)

Q: What about the GI50 (OVCAR-5) of the same compound?
A: > 100 µM (inactive)

Q: And the GI50 (MDA-N)?
A: 36.5 µM (inactive)

Q: And the GI50 (KM12)?
A: 33.3 µM (inactive)

Q: What about the GI50 (Hs-578T) of the same compound?
A: 35 µM (inactive)

Q: And the GI50 (LOX IMVI)?
A: 24.9 µM (inactive)

Q: And the GI50 (K562)?
A: 48.9 µM (inactive)

Q: And the GI50 (EKVX)?
A: > 100 µM (inactive)

Q: And the GI50 (PC-3)?
A: 42.6 µM (inactive)

Q: What about the GI50 (NCI/ADR-RES) of the same compound?
A: 32.4 µM (inactive)

Q: What about the GI50 (SW-620) of the same compound?
A: 43.2 µM (inactive)

Q: What about the GI50 (M14) of the same compound?
A: 38.2 µM (inactive)

Q: And the GI50 (SK-MEL-5)?
A: 29.4 µM (inactive)

Q: And the GI50 (A498)?
A: 60.7 µM (inactive)

Q: And the GI50 (SF-268)?
A: 39.9 µM (inactive)

Q: And the GI50 (HT-29)?
A: 86.5 µM (inactive)

Q: And the GI50 (SN12C)?
A: > 100 µM (inactive)

Q: What about the GI50 (COLO 205) of the same compound?
A: 60.1 µM (inactive)

Reference: ChEMBL document CHEMBL1201862, “PubChem BioAssay data set” (2004)
